Key:
Ev1 protein [1] = target: T1, Ev1 protein (Homo sapiens, UniProt Q9UI08); test: Influence of low molecular weight compounds on single-stranded DNA catenation activity of the Ev1 protein; format: biochemical; settings: compound 1, 5, 10 and 20 μM; 4 μM Ev1 protein; 20 μM φ×174 single-stranded DNA; 37° C., 1 hour
T1 construct: in accordance with the protocols used in purification of the entire-length Ev1 protein; 6xHis (N, cleaved yes); made in house; host or cells: E. coli BL21 (DE3) codon plus-RP, pET15b vector
T1 sequence (Q9UI08 1-418 isoform Q9UI08-2): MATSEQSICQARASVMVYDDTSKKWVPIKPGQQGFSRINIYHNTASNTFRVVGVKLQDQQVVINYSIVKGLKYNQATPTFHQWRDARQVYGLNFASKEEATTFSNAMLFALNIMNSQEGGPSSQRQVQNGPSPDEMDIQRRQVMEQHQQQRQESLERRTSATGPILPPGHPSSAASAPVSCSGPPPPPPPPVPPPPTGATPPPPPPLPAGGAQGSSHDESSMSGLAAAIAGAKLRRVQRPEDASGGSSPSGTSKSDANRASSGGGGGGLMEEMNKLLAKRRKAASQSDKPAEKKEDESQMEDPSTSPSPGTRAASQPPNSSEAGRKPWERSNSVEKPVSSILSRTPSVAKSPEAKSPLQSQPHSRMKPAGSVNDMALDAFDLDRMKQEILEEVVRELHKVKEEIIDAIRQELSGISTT
Description: With regard to the influence of each compound on the catenation activity of the Ev1 protein (FIGS. 14a, 15a, 16, 17a, and 18a), each compound in final concentrations of 1, 5, 10, and 20 μM, a φ×174 single-stranded DNA in a final concentration of 20 μM, and an Ev1 protein in a final concentration of 4 μM were added to 10 μl of a reaction solution (20 mM HEPES, 1 mM DTT, 100 μg/ml BSA, and 1 mM MgCl2). The obtained mixture was reacted at 37° C. for 1 hour. After completion of the reaction, 2 μl of a PK solution (0.2% SDS and 1.3 mg/ml proteinase K) was added to the reaction solution, and the obtained mixture was then reacted at 37° C. for 15 minutes. Thereafter, the reaction product was electrophoresed on a 0.8% HGT agarose gel, and DNA was then detected with SYBR Gold.

Ev1 protein [2] = target: T1, Ev1 protein; test: Gel shift method, single-stranded DNA binding activity of the Ev1 protein in the presence of compounds; settings: compound 1, 5, 10 and 20 μM; 0.3 μM Ev1 protein; 20 μM φ×174 single-stranded DNA; 37° C., 15 minutes
Description: Moreover, in a gel shift method involving single-stranded DNA binding activity (FIGS. 14b, 15b, 16b, 17b, and 18b), each compound in final concentrations of 1, 5, 10, and 20 μM, a φ×174 single-stranded DNA in a final concentration of 20 μM, and an Ev1 protein in a final concentration of 0.3 μM were added to 20 μl of a reaction solution (20 mM HEPES, 1 mM DTT, 100 μg/ml BSA, and 1 mM MgCl2). The obtained mixture was reacted at 37° C. for 15 minutes. Thereafter, the reaction product was electrophoresed on a 0.8% HGT agarose gel, and DNA was then detected with ethidium bromide.

Row | Compound | effect on single-stranded DNA catenation activity of the Ev1 protein (Ev1 protein [1]) | influence on activity of the Ev1 protein to bind to single-stranded DNA (gel shift) (Ev1 protein [2])
1 | Cc1cc(N)c2ccccc2[n+]1CCCCCCCCCC[n+]1c(C)cc(N)c2ccccc21 [dequalinium, dequalinium chloride] | inhibits the single-stranded DNA catenation activity of the Ev1 protein | changes the binding manner of the Ev1 protein that binds to a single-stranded DNA
2 | O=S(=O)(O)c1cc(N=C=S)ccc1C=Cc1ccc(N=C=S)cc1S(=O)(=O)O [DIDS] | inhibits the single-stranded DNA catenation activity of the Ev1 protein | inhibits the single-stranded DNA binding activity of the Ev1 protein
3 | β-rubromycin | inhibits the single-stranded DNA catenation activity of the Ev1 protein | changes the binding manner of the Ev1 protein that binds to a single-stranded DNA
4 | Nc1ccc2c(=S)c3ccccc3[nH]c2c1 [3-ATA, 3-amino-9-thio(10H)-acridone] | inhibits the single-stranded DNA catenation activity of the Ev1 protein | does not change the single-stranded DNA binding activity of the Ev1 protein
5 | CC[C@@]1(O)C[C@H](O[C@H]2C[C@H](N(C)C)[C@H](O[C@H]3C[C@H](O)[C@H](O[C@H]4CCC(=O)[C@H](C)O4)[C@H](C)O3)[C@H](C)O2)c2c(cc3c(c2O)C(=O)c2c(O)cccc2C3=O)[C@H]1C(=O)OC [aclarubicin] | inhibits the activity of an Ev1 protein to catenate single-stranded DNA molecules | does not change the activity of the Ev1 protein to bind to circular single-stranded DNA
